Data as given in patent US9932331B2, “Phenyl tetrahydroisoquinoline compound substituted with heteroaryl” (TAISHO PHARMACEUTICAL CO., LTD, priority 2014, dated 2018).
Counter-ions that a name gives are not always drawn.

Experiments:
human NHE3 = molecular target: T1, human NHE3 (Homo sapiens, UniProt P48764); assay: NHE3 inhibition test (recovery of intracellular pH in cell line stably expressing human NHE3); assay type: cell-based; settings: OK cells deficient in endogenous NHE stably expressing human NHE3; BCECF fluorescence, initial rate of pH recovery; read-out: human NHE3 inhibitory activity IC50
T1 sequence (P48764 26-834): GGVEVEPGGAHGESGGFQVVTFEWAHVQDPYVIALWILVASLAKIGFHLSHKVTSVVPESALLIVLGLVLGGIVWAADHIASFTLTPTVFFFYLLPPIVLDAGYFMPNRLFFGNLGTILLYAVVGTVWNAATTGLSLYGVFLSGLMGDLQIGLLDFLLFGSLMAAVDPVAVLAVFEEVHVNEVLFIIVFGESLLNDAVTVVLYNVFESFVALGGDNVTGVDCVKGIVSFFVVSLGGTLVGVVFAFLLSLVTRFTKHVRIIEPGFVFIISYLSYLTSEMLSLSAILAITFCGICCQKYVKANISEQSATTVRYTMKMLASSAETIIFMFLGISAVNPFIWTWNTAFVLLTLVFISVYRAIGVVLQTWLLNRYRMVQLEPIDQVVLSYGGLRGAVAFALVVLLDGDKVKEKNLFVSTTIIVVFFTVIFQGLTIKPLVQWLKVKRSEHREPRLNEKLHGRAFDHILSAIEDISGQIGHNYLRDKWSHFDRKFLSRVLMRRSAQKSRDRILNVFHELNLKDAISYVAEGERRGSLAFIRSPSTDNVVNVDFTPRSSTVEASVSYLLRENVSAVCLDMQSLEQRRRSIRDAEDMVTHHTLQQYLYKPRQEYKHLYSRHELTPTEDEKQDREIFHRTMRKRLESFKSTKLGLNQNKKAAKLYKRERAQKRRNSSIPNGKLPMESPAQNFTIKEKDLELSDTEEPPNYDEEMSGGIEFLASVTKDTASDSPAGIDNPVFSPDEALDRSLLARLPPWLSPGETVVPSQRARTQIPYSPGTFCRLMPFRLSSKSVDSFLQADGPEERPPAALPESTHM
In short: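 IC50 is the concentration halving the initial rate of Na-triggered intracellular pH recovery, tracked by BCECF fluorescence, in NH4Cl-acidified cells. Cells: NHE-deficient OK line stably transfected with human NHE3; compound added in Na-free pH 7.4 buffer.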

SD rat = assay: 32P-phosphate oral loading test using SD rat (phosphorus absorption inhibitory effect); assay type: in vivo; settings: Rattus norvegicus, 0.5 h; SD male rats, oral dose 3 mg/kg; plasma radioactivity 30 minutes after 32P-phosphate solution, vs control group; read-out: Rate of inhibition of phosphate absorption
Description: Phosphorus Absorption Inhibitory Effect of the Compound of the Present Invention in ^32P-Phosphate Oral Loading Test Using SD Rat
8-week-old SD male rats (Japan SLC, Inc.) were used as laboratory animals. Each test compound was suspended or dissolved at a concentration of 0.2 mg/mL or 0.6 mg/mL in Japanese Pharmacopoeia water for injection (manufactured by Hikari Pharmaceutical Co., Ltd.) and orally administered to each rat at a dose of 5 ml/kg body weight. Japanese Pharmacopoeia water for injection was administered at the same dose as above to a control group. 5 minutes after the administration of the test compound or water for injection, a phosphate solution (1.3 mM NaH2PO4) containing 32P-phosphate (PerkinElmer Inc.) was administered thereto at a dose of 5 ml/kg. 30 minutes after the administration of the phosphate solution, blood was collected from the tail vein, and the blood sample was immediately mixed with EDTA-2K (manufactured by Dojindo Laboratories). Then, the mixture was centrifuged at 3000 rpm at 4° C. for 10 minutes to recover plasma.
The radioactivity in 100 μL of the plasma was measured using a liquid scintillation counter and used as a phosphate absorption count. The radioactivity in the plasma of the control group was used as a control, and the rate of inhibition of phosphate absorption was determined according to the following expression: Rate of inhibition of phosphate absorption (%)=(1−Phosphate absorption count of the test compound administration group/Phosphate absorption count of the control group)×100 (2) Results

| SMILES | IC50 (human NHE3) [nM] | inhibition in vivo at 3 mg/kg (SD rat) [%] |
| --- | --- | --- |
| CN1Cc2c(Cl)cc(Cl)cc2[C@H](c2cccc(-c3cn(CCOCCOCCNC(=O)Nc4ccc(NC(=O)NCCOCCOCCn5cc(-c6cccc([C@@H]7CN(C)Cc8c(Cl)cc(Cl)cc87)c6)nn5)cc4)nn3)c2)C1 [Example 6-5, 1,1′-Benzene-1,4-diylbis[3-(2-{2-[2-(4-{3-[(4S)-6,8-dichloro-2-methyl-1,2,3,4-tetrahydroisoquinolin-4-yl]phenyl}-1H-1,2,3-triazol-1-yl)ethoxy]ethoxy}ethyl)urea]hydrochloride] | 9.5 | 46 |
| CN1Cc2c(Cl)cc(Cl)cc2[C@H](c2cccc(-c3cc(NCCOCCOCCNC(=O)NCCCCNC(=O)NCCOCCOCCNc4cc(-c5cccc([C@@H]6CN(C)Cc7c(Cl)cc(Cl)cc76)c5)ncn4)ncn3)c2)C1 [Example 7-2, 1,1′-Butane-1,4-diylbis {3-[2-(2-{2-[(6-{3-[(4S)-6,8-dichloro-2-methyl-1,2,3,4-tetrahydroisoquinolin-4-yl]phenyl}pyrimidin-4-yl)amino]ethoxy}ethoxy)ethyl]urea} tetrahydrochloride] | 9.4 | 23 |
| CN1Cc2c(Cl)cc(Cl)cc2[C@H](c2cccc(-c3cc(NCCOCCOCCOCCNC(=O)NCCCCNC(=O)NCCOCCOCCOCCNc4cc(-c5cccc([C@@H]6CN(C)Cc7c(Cl)cc(Cl)cc76)c5)ncn4)ncn3)c2)C1 [Example 7-40, 1,1′-Butane-1,4-diylbis(3-{2-[2-(2-{2-[(6-{3-[(4S)-6,8-dichloro-2-methyl-1,2,3,4-tetrahydroisoquinolin-4-yl]phenyl}pyrimidin-4-yl)amino]ethoxy}ethoxy)ethoxy]ethyl}urea) trifluoroacetate] | 11 | 28 |
| CN1Cc2c(Cl)cc(Cl)cc2[C@@H](c2cccc(-c3cn(CCOCCOCCOCCOCCOCCNC(=O)[C@H](O)[C@@H](O)[C@@H](O)[C@H](O)C(=O)NCCOCCOCCOCCOCCOCCn4cc(-c5cccc([C@@H]6CN(C)Cc7c(Cl)cc(Cl)cc76)c5)nn4)nn3)c2)C1 [Example 6-12, (2R,3S,4R,5S)—N-[17-(4-{3-[(4R)-6,8-Dichloro-2-methyl-1,2,3,4-tetrahydroisoquinolin-4-yl]phenyl}-1H-1,2,3-triazol-1-yl)-3,6,9,12,15-pentaoxaheptadec-1-yl]-N′-[17-(4-{3-[(4S)-6,8-dichloro-2-methyl-1,2,3,4-tetrahydroisoquinolin-4-yl]phenyl}-1H-1,2,3-triazol-1-yl)-3,6,9,12,15-pentaoxaheptadec-1-yl]2,3,4,5-tetrahydroxyhexanediamide hydrochloride] | 2.3 | 37 |
| CN1Cc2c(Cl)cc(Cl)cc2[C@H](c2cccc(-c3cn(CCOCCOCCNC(=O)COCC(=O)NCCOCCOCCn4cc(-c5cccc([C@@H]6CN(C)Cc7c(Cl)cc(Cl)cc76)c5)nn4)nn3)c2)C1 [Example 6-4, 1-(4-{3-[(4S)-6,8-Dichloro-2-methyl-1,2,3,4-tetrahydroisoquinolin-4-yl]phenyl}-1H-1,2,3-triazol-1-yl)-N-(2-{2-[2-(4-{3-[(4S)-6,8-dichloro-2-methyl-1,2,3,4-tetrahydroisoquinolin-4-yl]phenyl}-1H-1,2,3-triazol-1-yl)ethoxy]ethoxy}ethyl)-10-oxo-3,6,12-trioxa-9-azatetradecan-14-amide hydrochloride] | 97.6 | -5 |
| CN1Cc2c(Cl)cc(Cl)cc2[C@H](c2cccc(-c3cn(CCOCCOCCOCCNC(=O)[C@@H](O)[C@H](O)[C@H](O)[C@@H](O)C(=O)NCCOCCOCCOCCn4cc(-c5cccc([C@@H]6CN(C)Cc7c(Cl)cc(Cl)cc76)c5)nn4)nn3)c2)C1 [Example 6-8, (2R,3S,4R,5S)—N,N′-Bis[2-(2-{2-[2-(4-{3-[(4S)-6,8-dichloro-2-methyl-1,2,3,4-tetrahydroisoquinolin-4-yl]phenyl}-1H-1,2,3-triazol-1-yl)ethoxy]ethoxy}ethoxy)ethyl]-2,3,4,5-tetrahydroxyhexanediamide hydrochloride] | 0.8 | 34 |
| CN1Cc2c(Cl)cc(Cl)cc2[C@H](c2cccc(-c3ccnc(NCCOCCOCCNC(=O)NCCCCNC(=O)NCCOCCOCCNc4cc(-c5cccc([C@@H]6CN(C)Cc7c(Cl)cc(Cl)cc76)c5)ccn4)c3)c2)C1 [Example 7-4, 1,1′-Butane-1,4-diylbis {3-[2-(2-{2-[(4-{3-[(4S)-6,8-dichloro-2-methyl-1,2,3,4-tetrahydroisoquinolin-4-yl]phenyl}pyridin-2-yl)amino]ethoxy}ethoxy)ethyl]urea}pentahydrochloride] | 8.4 | 27 |
| CN1Cc2c(Cl)cc(Cl)cc2[C@H](c2cccc(-c3cncc(NCCOCCOCCOCCNC(=O)NCCCCNC(=O)NCCOCCOCCOCCNc4cncc(-c5cccc([C@@H]6CN(C)Cc7c(Cl)cc(Cl)cc76)c5)n4)n3)c2)C1 [Example 7-33, 1,1′-Butane-1,4-diylbis(3-{2-[2-(2-{2-[(6-{3-[(4S)-6,8-dichloro-2-methyl-1,2,3,4-tetrahydroisoquinolin-4-yl]phenyl}pyrazin-2-yl)amino]ethoxy}ethoxy)ethoxy]ethyl}urea) hexahydrochloride] | 8.6 | -1 |
| CN1Cc2c(Cl)cc(Cl)cc2[C@H](c2cccc(-c3cn(CCOCCOCCNC(=O)NCCCCNC(=O)NCCOCCOCCn4cnc(-c5cccc([C@@H]6CN(C)Cc7c(Cl)cc(Cl)cc76)c5)c4)cn3)c2)C1 [Example 7-15, 1,1′-Butane-1,4-diylbis[3-(2-{2-[2-(4-{3-[(4S)-6,8-dichloro-2-methyl-1,2,3,4-tetrahydroisoquinolin-4-yl]phenyl}-1H-imidazol-1-yl)ethoxy]ethoxy}ethyl)urea]hydrochloride] | 8.1 | 36 |
| CN1Cc2c(Cl)cc(Cl)cc2[C@H](c2cccc(-c3cc(NCCOCCOCCNC(=O)[C@H](O)[C@@H](O)C(=O)NCCOCCOCCNc4cc(-c5cccc([C@@H]6CN(C)Cc7c(Cl)cc(Cl)cc76)c5)ncn4)ncn3)c2)C1 [Example 8-8, (2R,3R)-N,N′-Bis[2-(2-{2-[(6-{3-[(4S)-6,8-dichloro-2-methyl-1,2,3,4-tetrahydroisoquinolin-4-yl]phenyl}pyrimidin-4-yl)amino]ethoxy}ethoxy)ethyl]-2,3-dihydroxybutanediamide hydrochloride] | 6.2 | 39 |
| CN1Cc2c(Cl)cc(Cl)cc2[C@H](c2cccc(-c3cc(NCCOCCOCCOCCNC(=O)CCC(=O)NCCOCCOCCOCCNc4cc(-c5cccc([C@@H]6CN(C)Cc7c(Cl)cc(Cl)cc76)c5)ncn4)ncn3)c2)C1 [Example 8-12, N,N′-Bis{2-[2-(2-{2-[(6-{3-[(4S)-6,8-dichloro-2-methyl-1,2,3,4-tetrahydroisoquinolin-4-yl]phenyl}pyrimidin-4-yl)amino]ethoxy}ethoxy)ethoxy]ethyl}butanediamide hydrochloride] | 6.2 | 6 |
| CN1Cc2c(Cl)cc(Cl)cc2[C@H](c2cccc(-c3cn(CCOCCOCCOCCOCCNC(=O)[C@H](O)[C@@H](O)C(=O)NCCOCCOCCOCCOCCn4cc(-c5cccc([C@@H]6CN(C)Cc7c(Cl)cc(Cl)cc76)c5)nn4)nn3)c2)C1 [Example 6-9, (2R,3R)—N,N′-Bis[14-(4-{3-[(4S)-6,8-dichloro-2-methyl-1,2,3,4-tetrahydroisoquinolin-4-yl]phenyl}-1H-1,2,3-triazol-1-yl)-3,6,9,12-tetraoxatetradec-1-yl]-2,3-dihydroxybutanediamide hydrochloride] | 4.1 | 53 |
